This is an account of results in patent US20210196731A1, “COMPOSITIONS AND METHODS FOR TREATING OCULAR INFLAMMATION AND OCULAR SCARRING” (priority 2018, published 2021).

This assay has as its system HTCFs. Nature of the assay: Collagen Contraction Assay II (dose dependence). The format is cell-based, human.

Molecules are shown by their SMILES.

Method: The cell-collagen solution was pipetted gently to ensure homogenous distribution of HTCFs while avoiding the production of air bubbles, then 500 ul were pipetted into each well of a 24-well tray. Collagen constructs were allowed to polymerize at 37 C for 45 minutes before adding low serum culture media containing DMEM, 2% Fetal Bovine Serum (FBS), 1% penicillin/streptomycin (P/S).
Tension was allowed to build up within the tethered matrix at 37 C and 5% CO2 for 72 hours before a sterile spatula was used to detach each collagen construct from the edges of the culture well. Plates were then immediately scanned on a flat bed laser scanner once per 24 hours for a total of 4 days. The surface area of each collagen construct was measured using ImageJ (NIH) and standardized against the baseline surface area measurement to express changes in area as a percentage of original surface area.
The gentamicin concentrations assessed were delivered in a solution contained DMEM with 2% FBS, 1% penicillin/streptomycin and either 100, 250, 500, 750 or 100 μg/ml gentamicin (Sigma-Aldrich, CAT. NO: G1397). The ASA concentrations assessed were delivered in a solution of DMEM with 2% FBS, 1% penicillin/streptomycin and either 500, 1000 or 1500 μg/ml ASA (Sigma-Aldrich, CAT. NO: A5376). […]

As for `CC(=O)Oc1ccccc1C(=O)O` [ASA, acetylsalicylic acid], the HTCF-mediated collagen contraction entry (ASA 500 μg/ml, alone or with gentamicin 100-1000 μg/ml (FIG. 8C)) was “no significant treatment effects found” and the HTCF-mediated collagen contraction entry (ASA alone, 500, 1000, 1500 μg/ml, four days (FIG. 8B)) is recorded as “dose dependent inhibition of HTCF-mediated collagen contraction”.
